What all share (test): MIC, agar dilution, multipoint inoculator
For orientation: In agar dilution, organisms are placed on agar that contains the substance at set levels.

In one assay the test system is S. aureus. The assay is classed as cell-based, Staphylococcus aureus. To be noted: Staphylococcus aureus, upper value of MIC reading, read-out: MIC. A digest of the protocol:
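Each strain was spot-inoculated (10^4 CFU) onto Mueller Hinton agar plates carrying compound dilutions, using a multipoint device, and the MIC was recorded.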

Another assay concerns Bacillus cereus. The assay is classed as cell-based. How it is done:
(§1) This activity was measured using a multipoint inoculator method as follows. The MIC for each compound was measured using an agar dilution method (Onda, H., et al., Int. J. Antimicrob. Agents. 18, 263 (2001)) (Mueller Hinton agar) by means of a multipoint inoculator delivering 10^4 colony forming units per spot.
(§2) 4Pycq was also tested against the following bacteria, using the multipoint inoculator method.

In the next assay the test system is Micrococcus roseus. The format is cell-based. To be noted: Kocuria rosea. How it is done:
as §1, §2

Another assay concerns Bacillus polymyxa. The format is cell-based. To be noted: Paenibacillus polymyxa. How it is done:
as §1, §2

The term MIC denotes the least concentration at which growth counts as inhibited.

In brackets after ≈: the same amount, converted by molar mass. Like-named read-outs stand apart in the source and are kept apart here.

Regarding `CC(C)(C)c1cc(/C=N/N=C(\N)c2ccncc2)c(O)c(C(C)(C)C)c1` [Compound 4PYcq], the MIC in the assay on S. aureus (18 h, S. aureus Cowan 1) was 4 µg/mL (≈ 11.3 µM); with S. aureus (NCTC6571, 18 h, S. aureus NCTC 6571) it was 4 µg/mL (≈ 11.3 µM); in the assay on S. aureus (NCTC10788, 18 h, S. aureus NCTC 10788), 4 µg/mL (≈ 11.3 µM); in the assay with Bacillus cereus it was 2 to 4 µg/mL (≈ 5.67 to 11.3 µM); against Micrococcus roseus, 0.5 to 1 µg/mL (≈ 1.42 to 2.84 µM); in the assay on Bacillus polymyxa, 2 to 4 µg/mL (≈ 5.67 to 11.3 µM).

(Values after patent publication US20080096894A1, “Anti-Bacterial Compounds” (ASTON UNIVERSITY, priority 2005, published 2008).)
